Test results as given in the supplement of paper PMC10307832.

Experiments:
Experiment in all cases: relative viability (nuclei count vs DMSO), 5 days (fraction); higher = more cells survive
Ruxolitinib + Pemetrexed = compound: N#CC[C@H](C1CCCC1)n1cc(-c2ncnc3[nH]ccc23)cn1 [Ruxolitinib] + Nc1nc2[nH]cc(CCc3ccc(C(=O)N[C@@H](CCC(=O)O)C(=O)O)cc3)c2c(=O)[nH]1 [Pemetrexed] (partner 0.2 µM)
Summary of the method: (§1)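 For relative viability, nuclei counts in treated wells were divided by those in vehicle wells. Lung cancer cell lines had been pin-tool dosed in 1536-well plates the day after seeding and cultured for 5 days, then fixed and stained in one step (final 0.05% Triton X-100, 1% formaldehyde, 1 ug/ml Hoechst) and imaged at 4×. Doses were one drug alone or a fixed anchor-drug dose plus five library-drug doses (not always all listed) in √10 steps, and values are duplicate-plate medians.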

Ruxolitinib + OSI-027 = compound: N#CC[C@H](C1CCCC1)n1cc(-c2ncnc3[nH]ccc23)cn1 [Ruxolitinib] + COc1cccc2cc(-c3nc([C@H]4CC[C@H](C(=O)O)CC4)n4ncnc(N)c34)[nH]c12 [OSI-027] (partner 0.5 µM)
Summary of the method: as §1

Vismodegib + Linsitinib = compound: CS(=O)(=O)c1ccc(C(=O)Nc2ccc(Cl)c(-c3ccccn3)c2)c(Cl)c1 [Vismodegib] + C[C@]1(O)C[C@@H](c2nc(-c3ccc4ccc(-c5ccccc5)nc4c3)c3c(N)nccn32)C1 [Linsitinib] (partner 1 µM)
Summary of the method: as §1

Ruxolitinib + AZD7762 = compound: N#CC[C@H](C1CCCC1)n1cc(-c2ncnc3[nH]ccc23)cn1 [Ruxolitinib] + NC(=O)Nc1cc(-c2cccc(F)c2)sc1C(=O)N[C@H]1CCCNC1 [AZD7762] (partner 0.2 µM)
Summary of the method: as §1

Cell Line	relative viability (Ruxolitinib + Pemetrexed; first compound 0.08 µM)	relative viability (Ruxolitinib + Pemetrexed; first compound 0.253 µM)	relative viability (Ruxolitinib + Pemetrexed; first compound 0.8 µM)	relative viability (Ruxolitinib + Pemetrexed; first compound 2.53 µM)	relative viability (Ruxolitinib + Pemetrexed; first compound 8 µM)	relative viability (Ruxolitinib + OSI-027; first compound 0.253 µM)	relative viability (Ruxolitinib + OSI-027; first compound 0.8 µM)	relative viability (Ruxolitinib + OSI-027; first compound 2.53 µM)	relative viability (Ruxolitinib + OSI-027; first compound 8 µM)	relative viability (Ruxolitinib + OSI-027; first compound 0.08 µM)	relative viability (Vismodegib + Linsitinib; first compound 0.08 µM)	relative viability (Vismodegib + Linsitinib; first compound 0.253 µM)	relative viability (Vismodegib + Linsitinib; first compound 0.8 µM)	relative viability (Vismodegib + Linsitinib; first compound 2.53 µM)	relative viability (Vismodegib + Linsitinib; first compound 8 µM)	relative viability (Ruxolitinib + AZD7762; first compound 0.08 µM)	relative viability (Ruxolitinib + AZD7762; first compound 0.253 µM)	relative viability (Ruxolitinib + AZD7762; first compound 0.8 µM)	relative viability (Ruxolitinib + AZD7762; first compound 2.53 µM)	relative viability (Ruxolitinib + AZD7762; first compound 8 µM)
NCI-H1650	0.311	0.43	0.351	0.333	0.346	0.651	0.98	0.769	0.641											
COR-L 105		1	0.926	0.874	0.919	0.536	0.705	0.667	0.531	0.535	0.781	0.978	0.965	1.01	0.849					
COR-L23	0.203	0.191	0.201	0.195	0.191	0.743	0.868	0.729	0.645	0.806	0.934	0.812	0.972	0.859	1.1					
NCI-H596	0.507	0.481	0.607	0.462	0.717	0.699	0.841	0.69	0.758	0.826	0.976	1.07	1.1	1.01	1.15	1.35	1.04	1.21	1.09	1.27
NCI-H322M	0.641	0.605	0.662	0.628	0.639	0.538	0.704	0.594	0.63	0.506	0.771	1.01	0.975	0.958	0.924	0.524	0.508	0.517	0.685	0.776
H3255	0.506	0.553	0.569	0.528	0.473	0.492	0.624	0.591	0.585	0.371	0.967	0.88	1	0.959	0.897	0.783	0.868	1.08	0.774	0.743
PC-14		0.117	0.122	0.139	0.12	0.949	1.22	0.608	0.543		0.897	0.911	0.982	0.899	0.998		0.356	0.363	0.347	0.359
A549											0.537	0.566	0.448	0.526	0.615					
NCI-H2342	0.594	0.767	0.812	0.752	0.733	0.564	0.674	0.585	0.736	0.557						0.429	0.447	0.488	0.422	0.649
NCI-H1623						0.461	0.469	0.439	0.576	0.48										
NCI-H520	0.74	0.714	0.748	0.466	0.413		0.278	0.239	0.326	0.317	0.916	0.928	0.966	0.974	1.16					
